Experimental data from patent publication US12162858B2, “Quinoline derivatives as inhibitors of AXL/MER RTK and CSF1R” (QURIENT CO., LTD., priority 2018, dated 2024).

Experiments:
[1] = molecular target: T1, Mer (Homo sapiens, UniProt Q12866); test: LanthaScreen Eu kinase binding assay for Mer; details: read-out: Mer kinase binding activity (Kd)
T1 construct: purchased Life Technologies
T1 sequence (Q12866 21-999): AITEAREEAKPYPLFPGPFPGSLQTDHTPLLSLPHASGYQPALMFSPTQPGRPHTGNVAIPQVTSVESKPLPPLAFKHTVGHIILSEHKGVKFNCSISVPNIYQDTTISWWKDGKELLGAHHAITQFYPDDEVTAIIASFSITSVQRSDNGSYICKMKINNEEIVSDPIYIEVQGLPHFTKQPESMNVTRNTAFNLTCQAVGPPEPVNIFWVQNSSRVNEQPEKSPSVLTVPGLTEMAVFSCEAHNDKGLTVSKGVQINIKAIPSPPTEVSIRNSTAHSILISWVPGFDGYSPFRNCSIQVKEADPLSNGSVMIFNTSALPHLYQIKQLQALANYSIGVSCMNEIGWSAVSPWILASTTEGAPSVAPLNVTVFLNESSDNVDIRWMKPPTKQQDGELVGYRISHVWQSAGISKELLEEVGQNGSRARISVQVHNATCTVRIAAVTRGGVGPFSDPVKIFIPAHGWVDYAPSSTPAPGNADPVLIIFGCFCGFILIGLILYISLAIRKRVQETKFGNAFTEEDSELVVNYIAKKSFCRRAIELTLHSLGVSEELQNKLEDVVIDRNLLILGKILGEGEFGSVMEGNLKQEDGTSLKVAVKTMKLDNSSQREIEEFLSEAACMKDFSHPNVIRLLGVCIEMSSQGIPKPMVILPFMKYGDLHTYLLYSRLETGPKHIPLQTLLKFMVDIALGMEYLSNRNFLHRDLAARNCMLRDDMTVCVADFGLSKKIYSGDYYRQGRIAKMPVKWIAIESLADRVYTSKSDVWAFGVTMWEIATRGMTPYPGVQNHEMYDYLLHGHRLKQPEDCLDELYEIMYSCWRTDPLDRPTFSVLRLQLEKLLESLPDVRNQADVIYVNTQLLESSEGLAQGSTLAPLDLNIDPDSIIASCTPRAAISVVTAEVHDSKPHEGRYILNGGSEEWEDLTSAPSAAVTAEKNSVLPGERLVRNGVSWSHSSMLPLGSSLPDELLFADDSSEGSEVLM
Method in brief: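 Competitive displacement of Alexa Fluor 647-labeled Tracer 236 from the kinase, with binding detected by TR-FRET with a Eu-labeled anti-GST antibody. Compounds were run as 8-step DMSO serial dilutions and incubated 1 h at room temperature. Kd was calculated relative to DMSO vehicle control wells.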

[2] = molecular target: T2, Axl (Ba/F3 cells) (Homo sapiens, UniProt P30530); test: BaF3 viability assay, Axl-dependent cells; assay type: cell-based; details: read-out: Cellular Axl activity by Ba/F3 assay (IC50)
T2 sequence (P30530 1-894): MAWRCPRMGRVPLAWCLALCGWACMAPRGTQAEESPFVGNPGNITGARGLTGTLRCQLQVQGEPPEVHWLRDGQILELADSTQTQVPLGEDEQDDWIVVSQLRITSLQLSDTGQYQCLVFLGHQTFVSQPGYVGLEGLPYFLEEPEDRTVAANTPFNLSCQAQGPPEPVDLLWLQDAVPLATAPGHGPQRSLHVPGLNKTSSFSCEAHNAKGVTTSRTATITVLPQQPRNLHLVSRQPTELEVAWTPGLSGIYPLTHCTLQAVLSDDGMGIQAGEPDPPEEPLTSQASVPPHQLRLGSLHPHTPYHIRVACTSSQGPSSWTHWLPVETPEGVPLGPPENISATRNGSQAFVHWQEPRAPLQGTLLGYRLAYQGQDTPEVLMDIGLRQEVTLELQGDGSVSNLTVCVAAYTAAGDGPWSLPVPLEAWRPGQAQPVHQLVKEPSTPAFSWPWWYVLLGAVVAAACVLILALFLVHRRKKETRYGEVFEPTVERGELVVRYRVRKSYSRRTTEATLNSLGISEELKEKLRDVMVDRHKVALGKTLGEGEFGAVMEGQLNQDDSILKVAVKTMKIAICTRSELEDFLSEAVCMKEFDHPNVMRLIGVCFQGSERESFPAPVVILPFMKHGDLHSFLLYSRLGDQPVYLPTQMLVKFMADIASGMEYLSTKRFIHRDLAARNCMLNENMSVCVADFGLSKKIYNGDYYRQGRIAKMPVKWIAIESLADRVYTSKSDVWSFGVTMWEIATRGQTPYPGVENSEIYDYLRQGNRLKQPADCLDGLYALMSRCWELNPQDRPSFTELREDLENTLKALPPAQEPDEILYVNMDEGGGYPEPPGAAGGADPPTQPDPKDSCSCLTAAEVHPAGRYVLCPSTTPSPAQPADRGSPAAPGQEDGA
Text: In this system, IL-3-dependent Ba/F3 cells are modified to express an activated recombinant kinase (in the present case Axl, Mer and CSF1R). Following removal of IL-3, the modified cells are dependent on the activity of the recombinant kinase for survival and proliferation. Inhibition of such kinase(s) through test compounds reduces survival and proliferation of the cells.
Cell lines were maintained in growth media (GM) consisting of RPMI 1640 supplemented with 10% FBS. Cells in logarithmic-phase growth were harvested and 5,000 cells were distributed into each well of a 384-well plate in 50 μl GM. Parental cells (or experimental assays where specified) were further supplemented with 2 ng/ml IL-3 to support cell growth and survival. Fifty nanoliters of the indicated reference standard or experimental compound were added to appropriate wells (in duplicate) and the cells were cultured for 48 h at 37° C./5% CO2. Viability was determined by adding 10 μl Cell Titer Glo and measuring luminescence, which is reported as relative light units (RLU) measured in counts per second. The following calculations and formulas are used for data analysis using GraphPad Prism software: The curve fitting was made using the Dose response curves-Inhibition.

Row | Kd [1] [nM] | SMILES | GI50 [2] [nM]
1 | < 100 | CCCn1cc(OCCC(O)CO)c(C(=O)Nc2ccc(Oc3ccnc4cc(OC)c(OC)cc34)cn2)n1 (stereo not shown) [Compound 15] | < 1000
2 | < 100 | COc1cc2nccc(Oc3ccc(NC(=O)c4nn(CC(C)O)cc4OCC(F)(F)F)nc3)c2cc1OC (stereo not shown) [Compound 17] | < 1000
3 | < 100 | COc1cc2nccc(Oc3ccc(NC(=O)c4nn(CCCO)cc4OCC(F)(F)F)nc3)c2cc1OC [Compound 18] | < 1000
4 | < 100 | COc1cc2nccc(Oc3ccc(NC(=O)c4nn(C[C@@H](C)O)cc4OCC(F)(F)F)nc3)c2cc1OC [Compound 29] | < 1000
5 | < 100 | COc1cc2nccc(Oc3ccc(NC(=O)c4nn(C[C@H](C)O)cc4OCC(F)(F)F)nc3)c2cc1OC [Compound 30] | < 1000
6 | ≥ 500 | CCCn1cc(OC(C)C)c(C(=O)Nc2ccc(Oc3ccnc4cc(OC)c(OC(F)(F)F)cc34)c(F)c2)n1 [Compound 35] | ≥ 10000
7 | < 100 | COc1cc2nccc(Oc3ccc(NC(=O)c4nn(CC5CCNC5)cc4OCC(F)(F)F)nc3)c2cc1OC (stereo not shown) [Compound 72] | –
8 | 100 to 500 | COc1cc2nccc(Oc3ccc(NC(=O)c4nn(CC5CNC5)cc4OCC(F)(F)F)nc3)c2cc1OC [Compound 73] | –
9 | 100 to 500 | COc1cc2nccc(Oc3ccc(NC(=O)c4nn(C5CCNC5)cc4OCC(F)(F)F)c(F)c3)c2cc1OC (stereo not shown) [Compound 74] | –
10 | 100 to 500 | COc1cc2nccc(Oc3ccc(NC(=O)c4nn(CCN)cc4OCC(F)(F)F)c(F)c3)c2cc1OC [Compound 75] | –
11 | < 100 | COc1cc2nccc(Oc3ccc(NC(=O)c4nn(CC(C)O)cc4OCC(F)(F)F)c(F)c3)c2cc1OC (stereo not shown) [Compound 76] | –
12 | < 100 | COc1cc2nccc(Oc3ccc(NC(=O)c4nn(CCC(F)(F)F)cc4OCC4CCC4)nc3)c2cc1OC [Compound 166] | –
13 | < 100 | CCCn1cc(OCC2CCC2)c(C(=O)Nc2ccc(Oc3ccnc4cc(OC)c(OC(F)(F)F)cc34)cn2)n1 [Compound 167] | –
14 | < 100 | COc1cc2nccc(Oc3ccc(NC(=O)c4nn(CCNC5CC5)cc4OCC(F)(F)F)nc3)c2cc1OC [Compound 168] | –
15 | < 100 | COc1cc2nccc(Oc3ccc(NC(=O)c4nn(CC5CCN(C)C5)cc4OCC(F)(F)F)nc3)c2cc1OC (stereo not shown) [Compound 169] | –
16 | < 100 | COc1cc2nccc(Oc3ccc(NC(=O)c4nn(C5CC5)cc4OCCC(F)(F)F)nc3)c2cc1OC [Compound 170] | –
17 | 100 to 500 | COCCOc1cn(C2CC2)nc1C(=O)Nc1ccc(Oc2ccnc3cc(OC)c(OC)cc23)nn1 [Compound 171] | –
18 | ≥ 500 | COc1cc2nccc(Oc3ccc(NC(=O)c4nn(C5CC5)cc4OCC4CNC4)nn3)c2cc1OC [Compound 172] | –
19 | < 100 | COc1cc2nccc(Oc3ccc(NC(=O)c4nn(C5CC5)cc4OCCC(F)(F)F)nn3)c2cc1OC [Compound 173] | –
20 | ≥ 500 | COc1cc2nccc(Oc3ccc(NC(=O)c4nn(CC(C)O)cc4OCC4CN(C)C4)nc3)c2cc1OC (stereo not shown) [Compound 174] | –
21 | < 100 | COc1cc2nccc(Oc3ccc(NC(=O)c4nn(CC(C)O)cc4OCC(F)F)nc3)c2cc1OC (stereo not shown) [Compound 175] | –
22 | 100 to 500 | COc1cc2nccc(Oc3ccc(NC(=O)c4nc(CCC(F)(F)F)oc4CCC4CCC4)nc3)c2cc1OC [Compound 176] | –
23 | 100 to 500 | CCCn1cc(OCCN(C)C)c(C(=O)Nc2ccc(Oc3ccnc4cc(OC)c(OC)cc34)cn2)n1 [Compound 177] | –
24 | < 100 | COc1cc2nccc(Oc3ccc(NC(=O)c4cc(C5CC5)cnc4OCC(F)(F)F)nc3)c2cc1OC [Compound 178] | –
25 | 100 to 500 | COc1cc2nccc(Oc3ccc(NC(=O)c4sc(C5CC5)cc4OCC(F)(F)F)nc3)c2cc1OC [Compound 179] | –
